For data set [1], the system named is dopamine receptor sites in the basal ganglia. Particulars: cited from earlier work.
In data set [2] the test system is norepinephrine receptor sites in thalamic and hypothalamic areas. As to conditions: cited from earlier work.
The conditions of data set [3]: basal ganglia, thalamic and hypothalamic areas; cited from earlier work.
The conditions of data set [4]: in vivo; cited from earlier work.
Data set [5] in a line: Radioligand binding assay, polypeptide in DMPC small unilamellar vesicles. As to conditions: lipid:peptide 147:1, 1 h at 25° C., pH 7.4, FIG. 7. Here is the method:
Preparation of Small Unilamellar Visicles. Polypeptides were incorporated into DMPC vesicles at lipid:peptide ratio of 147:1 in the followinq manner: polypept ide in HFIP was mixed with dimyrystyroyl-phosphatidylcholine (synthetic) (DMPC) in dry chloroform and dried to a film with a stream of dry nitrogen at 0° C. This residue was then dried further overnight under a vacuum (1×10^-2 torr). The residue was then hydrated in […] and sonicated for a 30-min period under nitrogen at 0° C. The suspension was sedimented for a 30-min at 100,000 q (4° C.) to remove any residual titanium particles and large unilamellar vesicles The supernatant was removed and sedimented once more at 159,000 g for a 45 min period at 4° C. The supernatant in the lower portion was used immediately.
Radioligand Bining Assays. A 0.50 mL volume of 1.00 nM [^3 H]-spiperone(New England specific activity […]) was added to assay tubes which contained 0.5 mL lipid/peptide supernatant, 0.5 mL Tris buffer pH 7.4 and 0.5 mL of cold drug for a final volume of 2.0 mL. […]
Filters were then washed with 6.0 mL of cold 50 mM Tris-HCl buffer, pH 7.40. For detection of radioactivity, filters were placed in 2.0 mL of scintillation fluid (Scintiverse) and incubated for 24 h. The activity of the tritium was determined in a Beckman LS 7500 liquid scintillation counter. […]

Data set [6] can be described thus: Circular dichroism, helical content. Type of data set: physicochemical. Particulars: solvent system in which most membrane polypeptides are strongly helical; FIG. 6. Here is the method: Circular Dichroism (CD). Spectra were recorded on an Aviv model 60 DS circular dichroism spectrophotometer at room temperature with a 1 cm by 1 mm cell. The amplitude of the CD signal was calibrated using 10.1% (w/v) solution of d (+)-camphorsulfonic acid (Aldrich) and the wavelength of the CD signal was set using standard absorbance peaks of benzene vapor. Polypeptide ccncentrations were determined in a Cary 210 UV spectrophotomer wwith the absorbance measured at 280 nm. Helical content was estimated using CD signal intensity according to the method of Chen. et al Biochem. 13:[…] (1974). This calculation compares the experimental ellipticity at. 222 nm ( [θ]222) ( [θ]) to a theoretical [θ]222. The theoretical [θ]222 is empirically adjusted to account for differences in polypeptide length and is based on experimental CD data from a series of proteins with known crystal structures. Since both the curve shape and magnitude are important in analysis of a CD spectrum for secondary structure contributions, we also considered qualitatively the contributions to the spectral shapes from different secondary structures using reference curves for poly (L-lysine).

Regarding `CN(C)CCCN1c2ccccc2Sc2ccc(Cl)cc21` [Chlorpromazine], the “Blocks DA” value in data set [1] is listed as “Yes++”. The “Blocks NE” value in data set [2] is listed as “Yes++”. Regarding `O=C(CCCN1CCC(O)(c2ccc(Cl)cc2)CC1)c1ccc(F)cc1` [Haloperidol], in data set [1], the “Blocks DA” value was “Yes++++”. For the same molecule, the “Blocks NE” value in data set [2] is “Yes+”. In the case of `COC(=O)[C@H]1[C@H]2C[C@@H]3c4[nH]c5cc(OC)ccc5c4CCN3C[C@H]2C[C@@H](OC(=O)c2cc(OC)c(OC)c(OC)c2)[C@@H]1OC` [Reserpine], the “concentrations of norepinephrine and dopamine” value in data set [3] is recorded as “reduces”. As to `CN1CCN(CC/C=C2/c3ccccc3Sc3ccc(S(=O)(=O)N(C)C)cc32)CC1` [Thiothixene], in data set [1], the “Blocks DA” value was “Yes+”. Further, the “Blocks NE” value in data set [2] is reported as “Yes+++”.

For the molecule `CN1CCN(C2=Nc3cc(Cl)ccc3Nc3ccccc32)CC1` [clozapine], in data set [4], the motor side effects result is “apparently capable of producing less motor side effects”. Consider “Polypeptide III: consensus peptide of the dopamine D2 receptor transmembrane domains I-VII (DYAIFVLYASAWLSFNCPFIVTLNIK)”, for which, in data set [5], the “binding of [^3 H]-spiperone (receptor-like functional binding)” value is “binding to the neuroleptic agent, spiperone, into a stereoselective, concentration-dependent manner”. Besides, in data set [6], the “helical structure from CD spectrum” value is on record as “only partially helical”.

The record behind these values is US5508384A, “Polypeptide derived from a popamine receptor, and compositions and methods thereof” (New York University, priority 1993, dated 1996).
